# Measured values reported in patent publication US12428416B2 (California Institute of Technology, priority 2018, dated 2025).
# Columns and labels:
# ERK1 = ERK1 (Homo sapiens, UniProt P27361); assay: ERK1 and 2 Enzymatic Inhibition Assay (ERK1); type: biochemical; conditions: 10 assay concentrations 2×10^−6 M to 6×10^−11 M, 1% DMSO
# Experimental: (§1) ERK1 and 2 Enzymatic Inhibition Assay
# (§2) For the Ki determination assay, 200 μM stock solutions of compounds were subjected to a serial, semi-logarithmic dilution using 100% DMSO as a solvent. 10 distinct concentrations were prepared, with a dilution endpoint of 6×10^−9 M in 100% DMSO. 100% DMSO was used as a control. 10 μL from each of the serial dilutions were aliquoted into separate wells of a 96-well plate and 90 μL of water were added to each of those wells. The plate was shaken thoroughly, and 5 μL from each of the plate's wells were transferred into wells of the assay plate. The final volume of wells in the assay plate was 50 μL. All compounds were tested at 10 assay concentrations in the range from 2×10^−6 M to 6×10^−11 M. The final DMSO concentration in the wells of the assay plate was 1% in all cases.
# [1] = tested on: drug-sensitive cell lines of Table 4; assay: Cell line growth retardation assay, average over sensitive cohort; type: cell-based, Human; conditions: Homo sapiens, 144 h; geometric mean of IC50s over sensitive cohort (Table 4); 6 days growth; read-out: AvgSens IC50
# Experimental: (§3) Cell Line Growth Retardation Assay
# (§4) Cells were seeded at densities of 1,000-5,000 cells per well in 48-well tissue culture plates. After a 24 h rest period, cells were treated with compound at 10 μM, 2 μM, 0.4 μM, 0.08 μM, 0.016 μM, and 0.0032 μM. A group of cells were treated with the vehicle in which the compound was prepared and served as a control. The cells were grown in the presence of compounds for 6 days and were counted on day 0 and day 6. All cell counting was performed using a Synentec Cellavista plate imager. […] Growth inhibition was calculated as a ratio of cell population doublings in the presence of compound versus the absence of compound. […] IC50 values for each compound were calculated by fitting curves to data points from each dose-response assay using the Proc NLIN function in SAS for Windows version 9.2 (SAS Institute, Inc.).
# (§5) Designation of Sensitivity and Resistant Cohorts and Calculation of Average IC50 Values
# (§6) Human cancer cell lines were grouped as “sensitive” or “resistant” to ERK1 inhibition based on whether their growth was retarded by KO-947 (i.e., 1,5,6,8-tetrahydro-6-(phenylmethyl)-3-(4-pyridinyl)-7H-pyrazolo[4,3-g]quinazolin-7-one) and SCH772984 (i.e., (3R)-1-[2-oxo-2-[4-[4-(2-pyrimidinyl)phenyl]-1-piperazinyl]ethyl]-N-[3-(4-pyridinyl)-1H-indazol-5-yl]-3-pyrrolidinecarboxamide) (data not shown; see Table 4). These sensitive and resistant cohorts were interrogated for response to each compound, and IC50s were calculated for each cell line using the same technique described above. Average IC50s for the sensitive and resistant cohorts were calculated as geometric means of the group.
# [2] = tested on: drug-resistant cell lines of Table 4; assay: Cell line growth retardation assay, average over resistant cohort; type: cell-based, Human; conditions: Homo sapiens, 144 h; geometric mean of IC50s over resistant cohort (Table 4); 6 days growth; read-out: AvgRes IC50
# Experimental: as §3, §4, §5, §6
# ERK2 = ERK2 (Homo sapiens, UniProt P28482); assay: ERK1 and 2 Enzymatic Inhibition Assay (ERK2); type: biochemical; conditions: 10 assay concentrations 2×10^−6 M to 6×10^−11 M, 1% DMSO
# Chain of ERK2 (P28482 whole entry): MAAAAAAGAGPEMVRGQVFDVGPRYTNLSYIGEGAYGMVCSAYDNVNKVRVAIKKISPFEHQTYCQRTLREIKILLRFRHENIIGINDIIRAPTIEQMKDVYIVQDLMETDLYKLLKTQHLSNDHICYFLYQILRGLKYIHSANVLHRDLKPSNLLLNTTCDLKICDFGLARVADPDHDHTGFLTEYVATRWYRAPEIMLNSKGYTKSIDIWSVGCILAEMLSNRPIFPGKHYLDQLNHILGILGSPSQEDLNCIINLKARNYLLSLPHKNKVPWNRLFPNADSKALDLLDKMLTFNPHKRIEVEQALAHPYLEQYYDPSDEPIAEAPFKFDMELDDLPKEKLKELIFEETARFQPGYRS
# Experimental: as §1, §2
# Chain of ERK1 (P27361 whole entry): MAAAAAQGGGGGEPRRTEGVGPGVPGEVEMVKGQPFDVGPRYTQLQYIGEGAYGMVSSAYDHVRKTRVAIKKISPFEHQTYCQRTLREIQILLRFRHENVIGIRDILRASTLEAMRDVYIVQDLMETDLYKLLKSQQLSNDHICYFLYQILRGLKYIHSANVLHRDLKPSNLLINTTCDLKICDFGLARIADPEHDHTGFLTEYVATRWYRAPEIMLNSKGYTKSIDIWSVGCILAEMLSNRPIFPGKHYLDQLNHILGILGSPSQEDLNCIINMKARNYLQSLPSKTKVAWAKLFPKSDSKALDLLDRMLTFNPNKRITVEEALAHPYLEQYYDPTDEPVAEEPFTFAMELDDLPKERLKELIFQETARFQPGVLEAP
Compound,Kd (ERK1) [nM],IC50 [1] [nM],IC50 [2] [nM],Kd (ERK2) [nM]
"CC(NC(=O)c1ncc(-c2c[nH]c3ncc(N4CC5(COC5)C4)cc23)cn1)c1ccccc1 (stereo in doubt) [Compound 42, (R)-5-(5-(2-oxa-6-azaspiro[3.3]heptan-6-yl)-1H-pyrrolo[2,3-b]pyridin-3-yl)-N-(1-phenylethyl)pyrimidine-2-carboxamide]",≤ 10,> 500,> 500,≤ 10
"O=C(NCCc1ccc(F)cc1)c1ncc(-c2c[nH]c3ncc(N4CCOCC4)cc23)cn1 [Compound 62, N-(4-fluorophenethyl)-5-(5-morpholino-1H-pyrrolo[2,3-b]pyridin-3-yl)pyrimidine-2-carboxamide]",≤ 10,> 500,> 500,11 to 100
"C[C@H](NC(=O)c1ncc(-c2c[nH]c3ncc(N4CCOCC4)cc23)cn1)c1ccccc1F [Compound 44, (S)—N-(1-(2-fluorophenyl)ethyl)-5-(5-morpholino-1H-pyrrolo[2,3-b]pyridin-3-yl)pyrimidine-2-carboxamide]",≤ 10,≤ 250,> 500,≤ 10
"CC(NC(=O)c1ncc(-c2c[nH]c3ncc(N4CCO[C@@H](C)C4)cc23)cn1)c1ccccc1 (stereo in doubt) [Compound 37, 5-(5-((S)-2-methylmorpholino)-1H-pyrrolo[2,3-b]pyridin-3-yl)-N—((R)-1-phenylethyl)pyrimidine-2-carboxamide]",≤ 10,> 500,> 500,11 to 100
"CC(NC(=O)c1ncc(-c2c[nH]c3ncc(N4C[C@@H](C)O[C@@H](C)C4)cc23)cn1)c1ccccc1 (stereo in doubt) [Compound 36, 5-(5-((2R,6S)-2,6-dimethylmorpholino)-1H-pyrrolo[2,3-b]pyridin-3-yl)-N—((R)-1-phenylethyl)pyrimidine-2-carboxamide]",≤ 10,> 500,> 500,11 to 100
"C[C@H](NC(=O)c1ncc(-c2c[nH]c3ncc(-c4ccncc4)cc23)cn1)c1ccccc1 [Compound 39, (S)—N-(1-phenylethyl)-5-(5-(pyridin-4-yl)-1H-pyrrolo[2,3-b]pyridin-3-yl)pyrimidine-2-carboxamide]",≤ 10,≤ 250,> 500,≤ 10
"C[C@H]1N=C(c2ncc(-c3c[nH]c4ncc(N5CCOCC5)cc34)cn2)O[C@H]1c1ccccc1 [Compound 56, 4-(3-(2-((4R,5S)-4-methyl-5-phenyl-4,5-dihydrooxazol-2-yl)pyrimidin-5-yl)-1H-pyrrolo[2,3-b]pyridin-5-yl)morpholine]",11 to 100,> 500,> 500,11 to 100
"CC(NC(=O)c1ncc(-c2c[nH]c3ncc(N4CCC45COC5)cc23)cn1)c1ccccc1 (stereo in doubt) [Compound 43, (R)-5-(5-(6-oxa-1-azaspiro[3.3]heptan-6-yl)-1H-pyrrolo[2,3-b]pyridin-3-yl)-N-(1-phenylethyl)pyrimidine-2-carboxamide]",11 to 100,> 500,> 500,> 100
"c1ccc([C@H]2CN=C(c3ncc(-c4c[nH]c5ncc(N6CCOCC6)cc45)cn3)N2)cc1 [Compound 15, (S)-4-(3-(2-(5-phenyl-4,5-dihydro-1H-imidazol-2-yl)pyrimidin-5-yl)-1H-pyrrolo[2,3-b]pyridin-5-yl)morpholine]",11 to 100,> 500,> 500,11 to 100
"c1ccc([C@H]2CN=C(c3ncc(-c4c[nH]c5ncc(N6CCOCC6)cc45)cn3)O2)cc1 [Compound 55, (S)-4-(3-(2-(5-phenyl-4,5-dihydrooxazol-2-yl)pyrimidin-5-yl)-1H-pyrrolo[2,3-b]pyridin-5-yl)morpholine]",11 to 100,> 500,> 500,11 to 100
"O=C(c1ncc(-c2c[nH]c3ncc(N4CCOCC4)cc23)cn1)N1CCC[C@@H]1c1ccccc1 [Compound 18, (R)-(5-(5-morpholino-1H-pyrrolo[2,3-b]pyridin-3-yl)pyrimidin-2-yl)(2-phenylpyrrolidin-1-yl)methanone]",11 to 100,> 500,> 500,11 to 100
"Cc1ccccc1CCNC(=O)c1ncc(-c2c[nH]c3ncc(N4CCOCC4)cc23)cn1 [Compound 65, N-(2-methylphenethyl)-5-(5-morpholino-1H-pyrrolo[2,3-b]pyridin-3-yl)pyrimidine-2-carboxamide]",≤ 10,≤ 250,> 500,≤ 10
"O=C(NC(c1ccccc1)C(F)(F)F)c1ncc(-c2c[nH]c3ncc(N4CCOCC4)cc23)cn1 (stereo in doubt) [Compound 47, (S)-5-(5-morpholino-1H-pyrrolo[2,3-b]pyridin-3-yl)-N-(2,2,2-trifluoro-1-phenylethyl)pyrimidine-2-carboxamide]",≤ 10,251 to 500,> 500,≤ 10
"O=C(NCCc1ccccc1)c1ccc(-c2c[nH]c3ncc(N4CCOCC4)cc23)nc1 [Compound 9, 6-(5-morpholino-1H-pyrrolo[2,3-b]pyridin-3-yl)-N-phenethylnicotinamide]",> 100,> 500,> 500,> 100
"CN(Cc1ccccc1)C(=O)c1ncc(-c2c[nH]c3ncc(N4CCOCC4)cc23)cn1 [Compound 8, N-benzyl-N-methyl-5-(5-morpholino-1H-pyrrolo[2,3-b]pyridin-3-yl)pyrimidine-2-carboxamide]",> 100,> 500,> 500,> 100
"COc1ccccc1[C@H](C)NC(=O)c1ncc(-c2c[nH]c3ncc(N4CCOCC4)cc23)cn1 [Compound 46, (S)—N-(1-(2-methoxyphenyl)ethyl)-5-(5-morpholino-1H-pyrrolo[2,3-b]pyridin-3-yl)pyrimidine-2-carboxamide]",≤ 10,251 to 500,> 500,≤ 10
"CC(NC(=O)c1ncc(-c2c[nH]c3ncc(N4CCOCC4)cc23)cn1)c1ccn(C)c1 (stereo not shown) [Compound 24, N-(1-(1-methyl-1H-pyrrol-3-yl)ethyl)-5-(5-morpholino-1H-pyrrolo[2,3-b]pyridin-3-yl)pyrimidine-2-carboxamide]",11 to 100,> 500,> 500,11 to 100
"O=C(NC(CO)c1ccccc1)c1ncc(-c2c[nH]c3ncc(N4CCOCC4)cc23)cn1 (stereo in doubt) [Compound 53, (S)—N-(2-hydroxy-1-phenylethyl)-5-(5-morpholino-1H-pyrrolo[2,3-b]pyridin-3-yl)pyrimidine-2-carboxamide]",≤ 10,> 500,> 500,≤ 10
"O=C(NCc1ccc(C(F)(F)F)cc1)c1ncc(-c2c[nH]c3ncc(N4CCOCC4)cc23)cn1 [Compound 10, 5-(5-morpholino-1H-pyrrolo[2,3-b]pyridin-3-yl)-N-(4-(trifluoromethyl)benzyl)pyrimidine-2-carboxamide]",> 100,> 500,> 500,> 100
"COc1cc(-c2cnc3[nH]cc(-c4cnc(C(=O)NC(C)c5ccccc5)nc4)c3c2)ccn1 (stereo in doubt) [Compound 41, (R)-5-(5-(2-methoxypyridin-4-yl)-1H-pyrrolo[2,3-b]pyridin-3-yl)-N-(1-phenylethyl)pyrimidine-2-carboxamide]",≤ 10,≤ 250,> 500,≤ 10
"CC(NC(=O)c1ncc(-c2c[nH]c3ncc(N4CCOC(C)(C)C4)cc23)cn1)c1ccccc1 (stereo in doubt) [Compound 38, (R)-5-(5-(2,2-dimethylmorpholino)-1H-pyrrolo[2,3-b]pyridin-3-yl)-N-(1-phenylethyl)pyrimidine-2-carboxamide]",11 to 100,> 500,> 500,11 to 100
"O=C(NCCc1ccccc1Cl)c1ncc(-c2c[nH]c3ncc(N4CCOCC4)cc23)cn1 [Compound 61, N-(2-chlorophenethyl)-5-(5-morpholino-1H-pyrrolo[2,3-b]pyridin-3-yl)pyrimidine-2-carboxamide]",≤ 10,251 to 500,> 500,≤ 10
